Laboratory results: patent US11236102B2, “Oxabicycloheptane prodrugs” (Lixte Biotechnology, Inc., priority 2015, dated 2022)
Several values for one entry are separate records, joined by “and”; a condition that tells them apart may be missing. Identical values can stand only once. Like-named read-outs stand apart in the source and are kept apart here.

Experiment: in vivo
Design: species or system SD rats
Method: 105 was dissolved in 4% NaHCO3 in saline for IV administration. The detailed procedure of dosing solution preparation was presented in Appendix I.
Thirteen (13) animals were placed on the study. The animals in IV arm were free access to food and water. One extra animal was used for blank liver and plasma generation (5 mL per animal). The resulting blank liver and plasma was then applied to the development of bioanalytical method and sample bioanalysis for the entire study.
The IV injection was conducted via foot dorsal vein. Animals were free access to food and water before dose.
The animal is restrained manually. Approximately 150 μL of blood/time point is collected into sodium heparin tube via cardiac puncture for terminal bleeding (anesthetized under carbon dioxide). Blood sample will be put on ice and centrifuged to obtain plasma sample (2000 g, 5 min under 4° C.) within 10 minutes.
The animal will be euthanized with carbon dioxide inhalation. Open abdominal cavity with scissor to expose internal organs. Hold the carcass in an upright position and allow the organs to fall forward. Cut the connective tissues and remove the organs. Then the organs are rinsed with cold saline, dried on filtrate paper, placed into a screw-top tube and weighed, snap frozen by placing into dry-ice immediately.
Plasma and liver samples were stored at approximately −80° C. until analysis. The backup samples will be discarded after three weeks after in-life completion unless requested. The unused dosing solutions will be discarded within three weeks after completion of the study
Software: The PK parameters were determined by non-compartmental model of non-compartmental analysis tool, Pharsight Phoenix WinNonlin® 6.2 software.
Concentration data within 80%-120% of LLOQ was considered within normal instrumental variation and presented in the results. Terminal t1/2 calculation: Time points were automatic selected by “best fit” model for terminal half life estimation as the first option. Manual selection was applied when “best fit” could not well define the terminal phase.

[1] = IV 1 mg/kg, 0.25 hr, individual, 1 mg/kg
[2] = IV 1 mg/kg, 1 hr, individual, 1 mg/kg
[3] = IV 1 mg/kg, 2 hr, individual, 1 mg/kg

CCN1CCN(C(=O)C2C3CCC(O3)C2C(=O)O)CC1 (stereo not drawn) [Compound 105]
AUC(0-last) in liver (105, IV 1 mg/kg, mean): 1019 ng·h/g
Liver-plasma concentration ratio of 105 [1]: 0.646
liver concentration of 105 [1]: 988 ng/g
plasma concentration of 105 [1]: 1530 ng/mL
Liver-plasma concentration ratio of 105 [2]: 1.96
liver concentration of 105 [2]: 446 ng/g
plasma concentration of 105 [2]: 228 ng/mL
Liver-plasma concentration ratio of 105 [3]: 2.19 and 6.09
liver concentration of 105 [3]: 131 ng/g
plasma concentration of 105 [3]: 45.2 ng/mL and 21.5 ng/mL
liver concentration of 105 (IV 1 mg/kg, 6 hr, individual): BQL
plasma concentration of 105 (IV 1 mg/kg, 6 hr, individual): BQL
liver concentration of 105 (IV 1 mg/kg, 6 hr, mean): BQL
plasma concentration of 105 (IV 1 mg/kg, 6 hr, mean): BQL
liver concentration of 105 (IV 1 mg/kg, 10 hr, individual): BQL
plasma concentration of 105 (IV 1 mg/kg, 10 hr, individual): BQL
liver concentration of 105 (IV 1 mg/kg, 10 hr, mean): BQL
plasma concentration of 105 (IV 1 mg/kg, 10 hr, mean): BQL
liver concentration of 105 (IV 1 mg/kg, 24 hr, individual): BQL
plasma concentration of 105 (IV 1 mg/kg, 24 hr, individual): BQL
liver concentration of 105 (IV 1 mg/kg, 24 hr, mean): BQL
plasma concentration of 105 (IV 1 mg/kg, 24 hr, mean): BQL
Kp at 0.25 h (male, SD, rat, in vivo, iv, 1 mg/kg, IV 1 mg/kg, 0.25 hr, individual, read-out: Liver-plasma concentration ratio of 105): 0.554
concentration at 0.25 hr (male, SD, rat, in vivo, iv, 1 mg/kg, IV 1 mg/kg, 0.25 hr, individual, read-out: liver concentration of 105): 1070 ng/g
concentration at 0.25 hr (male, SD, rat, in vivo, iv, 1 mg/kg, IV 1 mg/kg, 0.25 hr, individual, read-out: plasma concentration of 105): 1930 ng/mL
Kp at 0.25 h (male, SD, rat, in vivo, iv, 1 mg/kg, IV 1 mg/kg, 0.25 hr, mean, read-out: Liver-plasma concentration ratio of 105): 0.6
concentration at 0.25 hr (male, SD, rat, in vivo, iv, 1 mg/kg, IV 1 mg/kg, 0.25 hr, mean, read-out: liver concentration of 105): 1030 ng/g
concentration at 0.25 hr (male, SD, rat, in vivo, iv, 1 mg/kg, IV 1 mg/kg, 0.25 hr, mean, read-out: plasma concentration of 105): 1730 ng/mL
Kp at 1 h (male, SD, rat, in vivo, iv, 1 mg/kg, IV 1 mg/kg, 1 hr, individual, read-out: Liver-plasma concentration ratio of 105): 2.19
concentration at 1 h (male, SD, rat, in vivo, iv, 1 mg/kg, IV 1 mg/kg, 1 hr, individual, read-out: liver concentration of 105): 576 ng/g
concentration at 1 hr (male, SD, rat, in vivo, iv, 1 mg/kg, IV 1 mg/kg, 1 hr, individual, read-out: plasma concentration of 105): 263 ng/mL
Kp at 1 h (male, SD, rat, in vivo, iv, 1 mg/kg, IV 1 mg/kg, 1 hr, mean, read-out: Liver-plasma concentration ratio of 105): 2.07
concentration at 1 h (male, SD, rat, in vivo, iv, 1 mg/kg, IV 1 mg/kg, 1 hr, mean, read-out: liver concentration of 105): 511 ng/g
concentration at 1 hr (male, SD, rat, in vivo, iv, 1 mg/kg, IV 1 mg/kg, 1 hr, mean, read-out: plasma concentration of 105): 246 ng/mL
concentration at 2 h (male, SD, rat, in vivo, iv, 1 mg/kg, IV 1 mg/kg, 2 hr, individual, read-out: liver concentration of 105): 99.2 ng/g
Kp at 2 h (male, SD, rat, in vivo, iv, 1 mg/kg, IV 1 mg/kg, 2 hr, mean, read-out: Liver-plasma concentration ratio of 105): 4.14
concentration at 2 h (male, SD, rat, in vivo, iv, 1 mg/kg, IV 1 mg/kg, 2 hr, mean, read-out: liver concentration of 105): 115 ng/g
concentration at 2 hr (male, SD, rat, in vivo, iv, 1 mg/kg, IV 1 mg/kg, 2 hr, mean, read-out: plasma concentration of 105): 33.4 ng/mL
AUC(0-t) (male, SD, rat, in vivo, 105 in liver, IV 1 mg/kg, mean, read-out: AUC(0-t)): 1020
Cmax (male, SD, rat, in vivo, 105 in liver, IV 1 mg/kg, mean, read-out: Cmax): 1030 ng/mL
MRT inf (male, SD, rat, in vivo, 105 in plasma, IV 1 mg/kg, mean): 19.7 min
Cmax (male, Sprague-Dawley, rat, in vivo, 105, IV 1 mg/kg, mean, read-out: Cmax in liver): 1030 ng/g
Tmax (male, Sprague-Dawley, rat, in vivo, 105 in liver, IV 1 mg/kg, mean): 15 min
clearance (male, Sprague-Dawley, rat, in vivo, 105 in plasma, IV 1 mg/kg, mean): 10.9 mL/min/kg
AUC(0-t) (male, Sprague-Dawley, rat, in vivo, 105 in plasma, IV 1 mg/kg, mean, read-out: AUC(0-t) (AUClast)): 1510 ng·h/mL
AUC(0-inf) (male, Sprague-Dawley, rat, in vivo, 105 in plasma, IV 1 mg/kg, mean, read-out: AUC(0-∞) (AUCINF)): 1530 ng·h/mL
Vd (male, Sprague-Dawley, rat, in vivo, 105 in plasma, IV 1 mg/kg, mean, read-out: Vss): 0.215 L/kg
half-life (male, Sprague-Dawley, rat, in vivo, 105 in plasma, IV 1 mg/kg, mean, read-out: t1/2z (terminal half life) (converted)): 18.5 min
